In ChEMBL document CHEMBL1909046, “DrugMatrix in vitro pharmacology data”:

Legend:
[1] = DRUGMATRIX: Phosphodiesterase PDE4 enzyme inhibition (substrate: [3H]cAMP + cAMP); conditions: u-937; Not Active = under 50% inhibition at 10 µM
Insulin receptor = Insulin receptor (Rattus norvegicus, UniProt P15127); assay type: cell membranes, Wistar, Liver, Membrane; further: in other assays of this panel Not Active means under 50% inhibition at 10 µM
Cannabinoid receptor 1 = Cannabinoid receptor 1 (Homo sapiens, UniProt P21554); assay type: cell membranes, Membrane; conditions: chem-1; further: in other assays of this panel Not Active means under 50% inhibition at 10 µM
Chain of Cannabinoid receptor 1 (P21554 whole entry): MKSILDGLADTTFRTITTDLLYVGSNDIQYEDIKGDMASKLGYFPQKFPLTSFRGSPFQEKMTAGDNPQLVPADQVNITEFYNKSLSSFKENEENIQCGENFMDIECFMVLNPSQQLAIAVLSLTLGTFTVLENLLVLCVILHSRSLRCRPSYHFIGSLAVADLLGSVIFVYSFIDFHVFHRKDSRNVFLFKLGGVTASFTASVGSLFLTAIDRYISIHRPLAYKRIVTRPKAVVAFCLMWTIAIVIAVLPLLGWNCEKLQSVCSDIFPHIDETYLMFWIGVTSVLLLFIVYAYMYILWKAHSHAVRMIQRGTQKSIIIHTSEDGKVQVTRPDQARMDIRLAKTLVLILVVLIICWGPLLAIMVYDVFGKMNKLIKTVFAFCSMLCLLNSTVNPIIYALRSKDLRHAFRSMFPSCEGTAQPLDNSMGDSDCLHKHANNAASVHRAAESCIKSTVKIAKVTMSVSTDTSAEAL

Adenosine receptor A3 = target: T1, Adenosine receptor A3 (Homo sapiens, UniProt P0DMS8); assay type: cell membranes, CHO-K1, Membrane; conditions: cho-k1;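 further: radioligand binding assay with AB-MECA serving as the labeled ligand; in other assays of this panel Not Active means under 50% inhibition at 10 µM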
T1 sequence (P0DMS8 whole entry): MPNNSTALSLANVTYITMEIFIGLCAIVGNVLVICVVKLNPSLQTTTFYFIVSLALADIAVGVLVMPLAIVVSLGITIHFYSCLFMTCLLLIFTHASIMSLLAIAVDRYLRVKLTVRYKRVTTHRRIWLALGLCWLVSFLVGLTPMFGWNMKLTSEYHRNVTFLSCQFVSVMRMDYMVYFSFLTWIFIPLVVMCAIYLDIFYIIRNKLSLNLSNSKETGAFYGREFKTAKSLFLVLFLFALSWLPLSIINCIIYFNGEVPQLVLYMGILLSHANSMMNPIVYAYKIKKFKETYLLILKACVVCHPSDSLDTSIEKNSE

Melanocortin receptor 4 = Melanocortin receptor 4 (Homo sapiens, UniProt P32245); assay type: cell membranes, Membrane; conditions: hek293; further: in other assays of this panel Not Active means under 50% inhibition at 10 µM
Chain of Melanocortin receptor 4 (P32245 whole entry): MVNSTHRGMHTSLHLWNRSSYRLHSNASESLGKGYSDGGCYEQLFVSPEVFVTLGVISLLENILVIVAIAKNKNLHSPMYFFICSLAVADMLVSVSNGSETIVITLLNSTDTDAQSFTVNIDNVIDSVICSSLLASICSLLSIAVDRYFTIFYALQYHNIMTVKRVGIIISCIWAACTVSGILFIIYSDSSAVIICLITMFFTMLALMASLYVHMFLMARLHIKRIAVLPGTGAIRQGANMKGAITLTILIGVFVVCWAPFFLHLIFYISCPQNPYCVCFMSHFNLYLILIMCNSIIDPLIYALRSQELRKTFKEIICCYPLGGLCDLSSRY

[2] = target: T2, Neuropeptide Y receptor type 2 (Homo sapiens, UniProt P49146); assay type: cell membranes, Membrane; conditions: kan-ts; further: in other assays of this panel Not Active means under 50% inhibition at 10 µM
T2 sequence (P49146 whole entry): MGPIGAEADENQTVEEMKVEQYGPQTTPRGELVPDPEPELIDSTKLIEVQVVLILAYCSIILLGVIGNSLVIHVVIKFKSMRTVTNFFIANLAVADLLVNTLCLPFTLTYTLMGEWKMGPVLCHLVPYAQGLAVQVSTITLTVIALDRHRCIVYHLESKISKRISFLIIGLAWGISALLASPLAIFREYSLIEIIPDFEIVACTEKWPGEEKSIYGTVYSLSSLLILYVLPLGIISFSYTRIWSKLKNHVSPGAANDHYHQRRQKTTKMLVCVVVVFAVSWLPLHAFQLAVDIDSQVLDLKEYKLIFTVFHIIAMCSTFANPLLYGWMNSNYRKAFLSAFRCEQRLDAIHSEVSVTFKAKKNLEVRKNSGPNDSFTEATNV

[3] = DRUGMATRIX: ATPase, Na+/K+ enzyme inhibition (substrate: ATP); assay type: tissue-based, Sus scrofa, Heart; conditions: Not Active = under 50% inhibition at 10 µM
D(3) dopamine receptor = D(3) dopamine receptor (Homo sapiens, UniProt P35462); experiment: DRUGMATRIX: Dopamine D3 radioligand binding (ligand: [3H] Spiperone); assay type: cell membranes, CHO, Membrane; conditions: cho
Chain of D(3) dopamine receptor (P35462 whole entry): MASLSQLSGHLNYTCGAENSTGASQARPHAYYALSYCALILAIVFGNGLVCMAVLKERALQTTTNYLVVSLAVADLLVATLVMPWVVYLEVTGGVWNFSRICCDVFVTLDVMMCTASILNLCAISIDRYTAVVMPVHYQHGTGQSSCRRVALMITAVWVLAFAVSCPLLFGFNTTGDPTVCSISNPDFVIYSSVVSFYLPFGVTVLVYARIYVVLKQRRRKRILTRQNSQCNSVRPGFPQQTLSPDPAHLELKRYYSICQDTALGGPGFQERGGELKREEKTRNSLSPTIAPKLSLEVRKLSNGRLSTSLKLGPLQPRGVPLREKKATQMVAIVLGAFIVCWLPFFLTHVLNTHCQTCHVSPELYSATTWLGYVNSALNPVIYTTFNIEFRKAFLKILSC

Substance-P receptor = Substance-P receptor (Homo sapiens, UniProt P25103); assay type: cell membranes, CHO, Membrane; conditions: cho; further: in other assays of this panel Not Active means under 50% inhibition at 10 µM
Chain of Substance-P receptor (P25103 whole entry): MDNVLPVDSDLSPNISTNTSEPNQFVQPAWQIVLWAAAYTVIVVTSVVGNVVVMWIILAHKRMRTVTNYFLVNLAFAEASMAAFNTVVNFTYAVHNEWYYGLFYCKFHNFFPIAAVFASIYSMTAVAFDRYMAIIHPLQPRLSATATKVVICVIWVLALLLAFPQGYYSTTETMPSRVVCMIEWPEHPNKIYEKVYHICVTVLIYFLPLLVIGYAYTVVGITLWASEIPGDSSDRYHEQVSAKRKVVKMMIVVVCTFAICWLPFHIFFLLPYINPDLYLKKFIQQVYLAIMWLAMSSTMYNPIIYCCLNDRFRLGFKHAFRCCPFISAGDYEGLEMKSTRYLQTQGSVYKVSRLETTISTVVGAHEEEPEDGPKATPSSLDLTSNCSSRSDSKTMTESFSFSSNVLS

[4] = DRUGMATRIX: Potassium Channel [KATP] radioligand binding (ligand: [3H] Glyburide); assay type: cell membranes, Membrane; conditions: hit-t15; Not Active = under 50% inhibition at 10 µM
[5] = DRUGMATRIX: Calcium Channel Type L, Dihydropyridine radioligand binding (ligand: [3H] Nitrendipine); assay type: cell membranes, Rattus norvegicus, Wistar, Cerebral cortex, Membrane; conditions: Not Active = under 50% inhibition at 10 µM
[6] = target: Matrix metalloproteinase-9 (Homo sapiens, UniProt P14780); assay type: cell-based
Chain of Matrix metalloproteinase-9 (P14780 whole entry): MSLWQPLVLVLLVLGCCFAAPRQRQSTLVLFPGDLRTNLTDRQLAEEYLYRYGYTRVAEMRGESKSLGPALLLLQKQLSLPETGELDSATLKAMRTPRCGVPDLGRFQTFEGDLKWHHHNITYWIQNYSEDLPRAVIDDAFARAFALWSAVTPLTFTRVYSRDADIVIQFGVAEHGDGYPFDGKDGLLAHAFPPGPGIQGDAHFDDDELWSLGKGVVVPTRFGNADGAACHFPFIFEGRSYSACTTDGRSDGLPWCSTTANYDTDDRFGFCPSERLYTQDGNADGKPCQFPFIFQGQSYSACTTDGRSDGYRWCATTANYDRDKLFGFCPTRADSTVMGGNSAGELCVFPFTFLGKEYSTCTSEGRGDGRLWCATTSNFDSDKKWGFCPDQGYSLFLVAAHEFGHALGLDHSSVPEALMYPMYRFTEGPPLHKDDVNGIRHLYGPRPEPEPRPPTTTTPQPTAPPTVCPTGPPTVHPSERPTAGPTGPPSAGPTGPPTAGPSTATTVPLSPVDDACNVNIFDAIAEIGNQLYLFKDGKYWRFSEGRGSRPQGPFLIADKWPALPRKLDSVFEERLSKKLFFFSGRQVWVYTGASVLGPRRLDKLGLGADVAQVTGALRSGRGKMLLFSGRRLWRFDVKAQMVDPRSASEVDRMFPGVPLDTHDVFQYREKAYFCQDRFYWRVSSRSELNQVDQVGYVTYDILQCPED

Acetylcholinesterase = Acetylcholinesterase (Homo sapiens, UniProt P22303); experiment: DRUGMATRIX: Acetylcholinesterase enzyme inhibition (substrate: acetylthiocholine); assay type: cell-based, HEK293; conditions: hek293; Not Active = under 50% inhibition at 10 µM
Chain of Acetylcholinesterase (P22303 whole entry): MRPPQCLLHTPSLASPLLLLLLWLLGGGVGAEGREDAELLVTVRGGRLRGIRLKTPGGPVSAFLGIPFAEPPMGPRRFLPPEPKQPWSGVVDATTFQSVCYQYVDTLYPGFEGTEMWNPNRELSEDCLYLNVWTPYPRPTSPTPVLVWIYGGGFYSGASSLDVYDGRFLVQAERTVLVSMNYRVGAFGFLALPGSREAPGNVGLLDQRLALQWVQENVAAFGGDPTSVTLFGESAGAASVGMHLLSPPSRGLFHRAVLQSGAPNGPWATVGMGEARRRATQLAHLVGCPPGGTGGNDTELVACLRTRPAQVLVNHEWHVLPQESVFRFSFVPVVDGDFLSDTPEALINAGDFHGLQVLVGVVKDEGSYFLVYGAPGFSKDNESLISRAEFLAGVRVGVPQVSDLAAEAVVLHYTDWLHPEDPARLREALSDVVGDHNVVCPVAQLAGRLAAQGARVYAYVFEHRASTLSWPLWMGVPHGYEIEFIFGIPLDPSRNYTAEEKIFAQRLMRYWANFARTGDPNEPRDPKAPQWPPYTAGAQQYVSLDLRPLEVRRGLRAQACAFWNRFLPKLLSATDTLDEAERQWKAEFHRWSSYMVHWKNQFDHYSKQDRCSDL

[7] = DRUGMATRIX: beta-Lactamase enzyme inhibition (substrate: Nitrocefin); parameters: species or system Bacillus cereus; conditions: Not Active = under 50% inhibition at 10 µM
Cytochrome P450 3A4 = Cytochrome P450 3A4 (Homo sapiens, UniProt P08684); conditions: bti-tn-5b1-4; further: in other assays of this panel Not Active means under 50% inhibition at 10 µM
Chain of Cytochrome P450 3A4 (P08684 whole entry): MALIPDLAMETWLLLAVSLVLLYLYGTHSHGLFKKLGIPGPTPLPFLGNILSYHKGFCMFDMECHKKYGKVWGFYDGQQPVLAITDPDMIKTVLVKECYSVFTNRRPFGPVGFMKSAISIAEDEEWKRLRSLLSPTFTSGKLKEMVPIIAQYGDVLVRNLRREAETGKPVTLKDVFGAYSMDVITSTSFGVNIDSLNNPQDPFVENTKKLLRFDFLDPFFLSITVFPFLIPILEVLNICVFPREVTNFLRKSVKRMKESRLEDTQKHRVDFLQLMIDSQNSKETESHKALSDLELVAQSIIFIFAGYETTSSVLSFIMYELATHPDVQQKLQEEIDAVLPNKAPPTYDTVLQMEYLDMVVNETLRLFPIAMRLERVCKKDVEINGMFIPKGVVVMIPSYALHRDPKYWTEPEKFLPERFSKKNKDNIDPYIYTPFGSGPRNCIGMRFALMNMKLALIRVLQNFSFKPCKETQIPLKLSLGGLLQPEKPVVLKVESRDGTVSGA

Chain of Insulin receptor (P15127 27-759 limits assumed): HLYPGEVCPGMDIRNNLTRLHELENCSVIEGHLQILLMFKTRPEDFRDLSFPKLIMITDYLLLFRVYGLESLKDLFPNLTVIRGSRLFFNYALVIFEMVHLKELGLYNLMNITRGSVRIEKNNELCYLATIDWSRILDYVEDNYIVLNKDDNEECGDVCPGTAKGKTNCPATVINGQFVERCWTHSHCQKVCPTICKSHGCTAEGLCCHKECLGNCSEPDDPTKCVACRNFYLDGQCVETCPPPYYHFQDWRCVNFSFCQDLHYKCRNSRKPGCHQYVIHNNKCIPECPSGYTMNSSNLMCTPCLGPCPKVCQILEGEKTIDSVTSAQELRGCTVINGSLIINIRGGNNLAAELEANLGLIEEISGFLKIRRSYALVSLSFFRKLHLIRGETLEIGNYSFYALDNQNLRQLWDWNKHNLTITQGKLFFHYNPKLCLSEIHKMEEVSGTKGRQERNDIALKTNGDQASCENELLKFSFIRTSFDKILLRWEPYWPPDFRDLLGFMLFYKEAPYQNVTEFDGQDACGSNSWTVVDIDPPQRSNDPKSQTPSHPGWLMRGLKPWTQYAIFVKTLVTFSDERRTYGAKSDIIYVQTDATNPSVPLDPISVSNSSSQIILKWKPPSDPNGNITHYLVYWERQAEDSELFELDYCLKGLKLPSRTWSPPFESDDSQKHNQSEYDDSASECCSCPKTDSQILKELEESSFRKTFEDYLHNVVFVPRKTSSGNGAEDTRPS
Chain of Insulin receptor (P15127 764-1383 limits assumed): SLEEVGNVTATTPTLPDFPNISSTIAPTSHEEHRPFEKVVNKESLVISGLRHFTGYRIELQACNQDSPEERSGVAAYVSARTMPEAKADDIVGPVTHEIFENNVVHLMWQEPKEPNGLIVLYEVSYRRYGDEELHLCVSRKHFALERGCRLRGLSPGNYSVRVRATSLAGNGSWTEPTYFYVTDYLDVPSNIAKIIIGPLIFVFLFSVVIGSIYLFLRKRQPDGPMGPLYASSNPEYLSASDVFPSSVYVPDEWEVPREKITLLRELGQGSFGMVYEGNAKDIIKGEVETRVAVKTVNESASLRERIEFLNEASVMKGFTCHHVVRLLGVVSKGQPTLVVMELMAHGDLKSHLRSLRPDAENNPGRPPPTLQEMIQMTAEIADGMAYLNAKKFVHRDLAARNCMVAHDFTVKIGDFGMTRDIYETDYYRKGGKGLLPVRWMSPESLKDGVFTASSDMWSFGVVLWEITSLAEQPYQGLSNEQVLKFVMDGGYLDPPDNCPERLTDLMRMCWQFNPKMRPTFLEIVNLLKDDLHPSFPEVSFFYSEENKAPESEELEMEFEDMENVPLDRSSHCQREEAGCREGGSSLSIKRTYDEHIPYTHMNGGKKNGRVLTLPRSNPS

CC(C)n1c(/C=C/C(O)CC(O)CC(=O)O)c(-c2ccc(F)cc2)c2ccccc21 (stereo unspecified) [FLUVASTATIN]
Not Active: IC50 [1] | Ki [1] | IC50 (Insulin receptor) | IC50 (Cannabinoid receptor 1) | IC50 (Adenosine receptor A3) | IC50 (Melanocortin receptor 4) | IC50 [2] | IC50 [3] | Ki [3] | IC50 (D(3) dopamine receptor) | IC50 (Substance-P receptor) | IC50 [4] | Ki [4] | IC50 [5] | Ki [5] | IC50 [6] | IC50 (Acetylcholinesterase) | IC50 [7] | Ki [7] | IC50 (Cytochrome P450 3A4) | Ki (Cytochrome P450 3A4)

NCC1(CC(=O)O)CCCCC1 [GABAPENTIN]
Not Active: IC50 [1] | Ki [1] | IC50 (Insulin receptor) | IC50 (Cannabinoid receptor 1) | IC50 (Adenosine receptor A3) | IC50 (Melanocortin receptor 4) | IC50 [2] | IC50 [3] | Ki [3] | IC50 (D(3) dopamine receptor) | IC50 (Substance-P receptor) | IC50 [4] | Ki [4] | IC50 [5] | Ki [5] | IC50 [6] | IC50 (Acetylcholinesterase) | IC50 [7] | Ki [7] | IC50 (Cytochrome P450 3A4) | Ki (Cytochrome P450 3A4)

CC[N+](CC)(CC)CCOc1cccc(OCC[N+](CC)(CC)CC)c1OCC[N+](CC)(CC)CC.[I-].[I-].[I-] [GALLAMINE TRIETHIODIDE]
Not Active: IC50 [1] | Ki [1] | IC50 (Insulin receptor) | IC50 (Cannabinoid receptor 1) | IC50 (Adenosine receptor A3) | IC50 (Melanocortin receptor 4) | IC50 [2] | IC50 [3] | Ki [3] | IC50 (D(3) dopamine receptor) | IC50 (Substance-P receptor) | IC50 [4] | Ki [4] | IC50 [5] | Ki [5] | IC50 [6] | IC50 (Acetylcholinesterase) | IC50 [7] | Ki [7] | IC50 (Cytochrome P450 3A4) | Ki (Cytochrome P450 3A4)

Nc1nc2c(ncn2COC(CO)CO)c(=O)[nH]1 [GANCICLOVIR]
Not Active: IC50 [1] | Ki [1] | IC50 (Insulin receptor) | IC50 (Cannabinoid receptor 1) | IC50 (Adenosine receptor A3) | IC50 (Melanocortin receptor 4) | IC50 [2] | IC50 [3] | Ki [3] | IC50 (D(3) dopamine receptor) | IC50 (Substance-P receptor) | IC50 [4] | Ki [4] | IC50 [5] | Ki [5] | IC50 [6] | IC50 (Acetylcholinesterase) | IC50 [7] | Ki [7] | IC50 (Cytochrome P450 3A4) | Ki (Cytochrome P450 3A4)

COc1c(N2CCNC(C)C2)c(F)cc2c(=O)c(C(=O)O)cn(C3CC3)c12 (stereo unspecified) [GATIFLOXACIN]
Not Active: IC50 [1] | Ki [1] | IC50 (Insulin receptor) | IC50 (Cannabinoid receptor 1) | IC50 (Adenosine receptor A3) | IC50 (Melanocortin receptor 4) | IC50 [2] | IC50 [3] | Ki [3] | IC50 (D(3) dopamine receptor) | IC50 (Substance-P receptor) | IC50 [4] | Ki [4] | IC50 [5] | Ki [5] | IC50 [6] | IC50 (Acetylcholinesterase) | IC50 [7] | Ki [7] | IC50 (Cytochrome P450 3A4) | Ki (Cytochrome P450 3A4)

CC1(C)[C@@H](O[C@H]2O[C@H](C(=O)O)[C@@H](O)[C@H](O)[C@H]2O[C@@H]2O[C@H](C(=O)O)[C@@H](O)[C@H](O)[C@H]2O)CC[C@]2(C)[C@H]3C(=O)C=C4[C@@H]5C[C@@](C)(C(=O)O)CC[C@]5(C)CC[C@@]4(C)[C@]3(C)CC[C@@H]12 [GLYCYRRHIZIN]
Not Active: IC50 [1] | Ki [1] | IC50 (Insulin receptor) | IC50 (Cannabinoid receptor 1) | IC50 (Adenosine receptor A3) | IC50 (Melanocortin receptor 4) | IC50 [2] | IC50 [3] | Ki [3] | IC50 (D(3) dopamine receptor) | IC50 (Substance-P receptor) | IC50 [4] | Ki [4] | IC50 [5] | Ki [5] | IC50 [6] | IC50 (Acetylcholinesterase) | IC50 [7] | Ki [7] | IC50 (Cytochrome P450 3A4) | Ki (Cytochrome P450 3A4)
